Consider one compound from article PMC3006138, “Fexinidazole – A New Oral Nitroimidazole Drug Candidate Entering Clinical Development for the Treatment of Sleeping Sickness” (PLoS Neglected Tropical Diseases, 2010).

Data set [1] is described as follows: Hepatocyte intrinsic clearance and metabolite profile. Particulars: human. Format: in vitro ADME, human. As for the experimental part:
Fexinidazole was incubated with cryopreserved hepatocytes from male CD-1 mice, male Sprague Dawley rats, male beagle dogs, male cynomolgus monkeys, and from pooled white or African-American human donor samples (purchased commercially), at concentrations of 1 µM and 10 µM. […] The incubated samples were analyzed by LC-MS after extraction into acetonitrile.
Fexinidazole sulfoxide, lot 1106-I-0170, 99.3% purity, and fexinidazole sulfone, lot 1106-I-0171, 99.9% purity, were provided by the Sponsor.
Cryopreserved hepatocytes of five single donors, lots EHI, REL, KSE […]
ZIJ and MRS, were purchased from In Vitro Technologies Inc (Baltimore, Maryland, USA).
The certificates of analysis are reported in Appendix 1.
Reagents and solvents were of analytical grade and obtained from Sigma-Aldrich (St. Louis, […]
7.5. In Vitro Incubations
On the day of the experiment a 10 mM stock solution of fexinidazole in DMSO was prepared and, within 3 hours, aliquots of this freshly prepared solution, after suitable dilution, were added to the incubation matrix, to reach fexinidazole final concentrations of 1 and 10 µM. The final percentage of DMSO was 0.01% in the incubation samples for the […]
The cryopreserved hepatocytes were thawed according to the supplier’s procedure and the number of viable cells was determined using the Trypan Blue exclusion method. Viabilities were 92% for lot EHI, 89% for lot REL, 82% for lot KSE, 86% for lot ZIJ and 86% for lot MRS in the intrinsic clearance study. In the metabolite profile study viabilities were 91% for lot EHI, 90% for lot REL, 85% for lot KSE, 84% for lot ZIJ and 87% for lot MRS.
Afterwards, the same amount of viable cells for each donor were pooled and used for the incubations of fexinidazole.
7.5.1. Intrinsic Clearance Study […]
µM with pooled human hepatocytes (1 million cells/mL) in a final incubation volume of 1 mL Leibovitz L-15 medium, at 37°C. Incubations were performed in duplicate in a 48-well plate under shaking. Sampling was performed using an automatic liquid handling system (Multiprobe II EX, Packard). At 0, 1, 5, 10, 15, 20, 30, 60 and 120 minutes, 50 µL aliquots of the incubates were taken, then 80 µL of ice-cold acetonitrile and 20 µL of 1 µM warfarin in acetonitrile (internal standard) were added, and samples centrifuged at 2000 rpm for 20 min. The supernatant was analyzed by LC-MS/MS. […]
The chemical stability of fexinidazole was checked by incubating the compound at 37°C in the medium alone at t = 0 and 120 minutes.
For the determination of phase I and phase II activities of hepatocytes, 7-ethoxycoumarin (7-ETC) 1 µM, and 7-hydroxycoumarin (7-HC) 30 µM were used as positive controls and incubated under the same conditions as fexinidazole. Aliquots of incubates were taken at 0, 1, 5, 10, 15, 20, 30, 60 and 120 minutes and processed as fexinidazole samples.
7.5.2. Metabolite Profile Study
For metabolite profiling, fexinidazole was incubated at a concentration of 10 µM with pooled human hepatocytes (1 million cells/mL) in a final incubation volume of 2 mL Leibovitz L-15 medium, at 37°C. Aliquots of the incubation samples were taken at t = 0, 30 and 120 minutes; the metabolism was stopped by the addition of an equal volume of cold acetonitrile and the samples centrifuged at 1100 rpm for 20 min. The supernatant was stored at -20°C until analysis. Control incubations were performed with the compound in the medium alone for 120 minutes.
7.6. Analysis of the Samples of Intrinsic Clearance Study
The analysis of the samples for intrinsic clearance determination was performed by an LC-MS/MS method, using the following conditions:
HPLC Equipment and Conditions
HPLC system 1100 binary pump (Agilent, Palo Alto, USA)
Autosampler 2777 (Waters)
Analytical column Guard Column SB-C8 4.6 x 12.5 mm, 5 µm (Zorbax)
Column temperature ambient
Mobile phase A 10 mM ammonium formate pH 4.0: acetonitrile (95:5, v:v)
Mobile phase B 10 mM ammonium formate pH 4.0: acetonitrile (5:95, v:v) […]
Gradient conditions Step Total time (min) flow (µL/min) %A % B […]

Data set [2] in a line: Cardiovascular safety by telemetry. Conditions: single oral dose. As for the experimental part:
Cardiovascular safety parameters were assessed in beagle dogs. Four adult (>1 year old) beagle dogs were given oral doses of fexinidazole at 100, 300 and 1000 mg/kg in an escalating dose design.
6.3. Treatment and Experimental Design
Experimental Day Treatmenta Dose (mg/kg) Volume Animal numbers (males) […]
a) Animals were treated following an escalating dose design with an adequate washout (at least 5 half lives of the longer lasting metabolite) between doses
Doses of 100, 300 and 1000 mg/kg of fexinidazole were selected based on the results of a […]
The oral route is that intende d for clinical administration.
6.3.1. Clinical Observation […]
dosing. Body weights are not reported here but they are archived with the study file.
6.3.2. Telemetry recordings
On the day of dosing, telemetry signals from each animal were collected continuously […]
The following parameters were calculated:
− Systolic blood pressure (SBP, mmHg)
− Diastolic blood pressure (DBP, mmHg)
− Average blood pressure (ABP, mmHg)
− Heart rate (HR, bpm, from the blood pressure signal)
− ECG intervals (RR, PR, QRS and QT, ms)
− Body temperature (BT, °C)
All the above-mentioned parameters were extracted automatically by the Notocord HEM acquisition software (Notocord, Croissy-sur-Seine, France) as the average value of 10-second recordings. […]

Details of data set [3]: method as in ref 3 (report no. 0275-2007-R). Particulars: single 50 mg/kg po, ref 3 (report no. 0275-2007-R); cited from earlier work.
On the set-up of data set [4]: method as in ref 2 (report no. 0259-2007-R). Conditions: oral, normalized to 1 mg/kg, previous rat study, ref 2 (report no. 0259-2007-R); cited from earlier work.

Usually half-life stands for the time in which the quantity being followed falls by half. A word on the Cmax: it is the maximum level reached in the sampled fluid or tissue. For `CSc1ccc(OCc2ncc([N+](=O)[O-])n2C)cc1` [Fexinidazole, 1-methyl-2-((p-(methylthio)phenoxy)methyl)-5-nitroimidazole], the half-life at 1 µM in data set [1] turned out to be 6.5 min. Moreover, in data set [1] (read-out: CLint in vitro), the CLint scaled at 1 µM amounted to 257 mL/min/kg and the hepatocyte CLint at 1 µM is 107 µL/min/1e6 cells. In data set [2], the “NOEL on body temperature” value was found to be 100 mg/kg; the “NOEL on cardiovascular parameters and ECG intervals” value came to 1000 mg/kg. In data set [3], the “AUC0-tlast” value was 416 ng⋅h/mL and the Cmax was 154 ng/mL. For the same compound, the “AUC0-∞, norm” value in data set [4] is 45 ng⋅h/mL.
